From patent US7465453B2, “Polypeptide fragments of CKLF1” (Peking University, priority 2004, dated 2008)

Key:
[1] = system: OVA-sensitized murine asthma model; experiment: OVA-sensitized murine asthma model; type: in vivo, C57BL/6 mice; details: for airway hyperreactivity: OVA-sensitized and challenged mice, i.p. pretreatment
Protocol: C57BL/6 mice (20-25 g) of either sex were sensitized by an i.p. injection (100 μl) of 20 μg chicken OVA (Sigma-Aldrich, St. Louis, Mo.) emulsified in Imject alum (2.25 mg Al(OH)3/2 mg Mg(OH)2) (Pierce, Rockfield, Ill.) on days 0 and 14. Mice were injected with 1, 10, or 100 μg of C27 or C19 i.p, and thirty minutes later, these mice were subsequently challenged with an aerosol generated from 1% OVA in saline (OVA), or saline alone, for 20 min by ultrasonic nebulization (DeVilbiss, Somerset, Pa.). This procedure was repeated daily on days 24, 25, and 26. The mice were assessed on day 28.

[2] = target: T1, CCR5 (Homo sapiens, UniProt P51681); experiment: Calcium flux assay in CCR5-transfected HEK293 cells; type: cell-based; details: for calcium flux: CCR5-transfected HEK293 cells, 167 nM C27 or C19, 100 nM RANTES; for desensitization of transfectants to subsequent RANTES treatment: CCR5 transfectants, first 167 nM peptide, then 100 nM RANTES
T1 construct: The cDNA fragments covering the open reading frames for various chemokine receptors were obtained as follows; expressed in transfected cells; host or cells: HEK293 (transient, electroporation)
T1 sequence (P51681 whole entry, the tested form may be a part): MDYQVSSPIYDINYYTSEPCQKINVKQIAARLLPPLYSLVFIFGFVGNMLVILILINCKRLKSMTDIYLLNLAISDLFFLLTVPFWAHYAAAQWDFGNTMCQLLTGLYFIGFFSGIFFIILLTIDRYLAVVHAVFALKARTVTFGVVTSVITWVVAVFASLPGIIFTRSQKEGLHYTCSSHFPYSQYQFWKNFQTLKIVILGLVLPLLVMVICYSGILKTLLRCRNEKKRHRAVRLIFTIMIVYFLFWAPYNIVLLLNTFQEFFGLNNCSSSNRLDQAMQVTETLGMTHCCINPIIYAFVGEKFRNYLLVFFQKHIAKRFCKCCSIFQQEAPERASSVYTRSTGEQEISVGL
Excerpt: The cDNA fragments covering the open reading frames for various chemokine receptors were obtained as follows. CCR4, CCR5 and CCR6 receptors were cloned from a K562 cell cDNA library by polymerase chain reaction (PCR). The primers were designed using the sequences from the following GenBank™ submissions: CCR4 (NM_005508.2), CCR5 (NM_000579) and CCR6 (AY242126). The fragments were cloned into an expression vector pcDI (modified in our lab from pcDNA3 vector (Invitrogen), in which the part between BgI II-Kpn I was replaced by the fragment of pCl vector (Promega) digested with BgI II-Kpn I) or pEGFP-N1 vector (CLONTECH) for efficient expression in HEK293 cells. The sequences coding receptors in expression plasmids were confirmed by DNA sequencing, which is consistent with the sequence submitted in GenBank™.
HEK293 cells were grown in RPMI 1640 supplemented with 10% heat-inactivated FBS, penicillin (100 U/ml) and streptomycin (100 μg/ml). Every 4×10^6 HEK293 cells in 400 μl were transiently transfected by electroporation with 15 μg of the expression plasmid at 120 V, 20 ms using an electric pulse generator (Electro Square Porator ECM 830, BTX, San Diego, Calif.), and calcium mobilization assay and chemotaxis assays were performed 48 hours later.
HEK293 cells transfected with pcDI-CCR4 or pcDI-CCR5 were grown in specialized glass-bottom microwell dishes (MatTek Corporation, U.S.A.) and loaded with 10 μM fluo-3/AM in HEPES-buffered saline at 37° C. for 1 hour in the dark. The cells were rinsed with HEPES-buffered saline and stimulated with 167 nM secreted CKLF1 peptides and 100 nM TARC or RANTES, respectively. Fluorescence was monitored at 488 nm (excitation wavelength) and 530 nm (emission wavelength) every 5 second using a Leica TCS-NT confocal fluorescence microscope with a 40× oil immersion lens (Wetzler, Heidelberg, Germany). The measurement was completed at room temperature and each field of cells was selected at random. Images were collected at 5 second intervals for 405 seconds. The images were analyzed for relative fluorescence using Leica confocal software. The relative fluorescence was determined using Microsoft Excel. All calcium flux assays were performed in the presence of extracellular calcium (in the absence of EDTA or EGTA) in the assay buffers. Therefore, both intracellular calcium release and extracellular calcium influx were analyzed.

## ALIYRKL LFNPSGPYQKKPVHEKKEVL (ALIYRKLLFNPSGPYQKKPVHEKKEVL; listed as Homo sapiens) [C27]
[1]
  airway hyperreactivity: small, but not statistically significant, increase
[1]; doses ranging from 1 to 100 μg/mouse i.p., vs positive control group
  inhibition of the eosinophil infiltration into the BAL fluid: did not demonstrate any inhibition
[2]
  calcium flux: a strong calcium flux
  desensitization of transfectants to subsequent RANTES treatment: could desensitize

## FNPSGPYQKKPVHEKKEVL (listed as Homo sapiens) [C19]
[1]; 1 μg/mouse i.p., vs positive control group
  inhibition of eosinophil recruitment into the airways (BAL fluid analysis): 78%
[1]; 10 μg/mouse i.p., vs positive control group
  inhibition of eosinophil recruitment into the airways (BAL fluid analysis): 69%
[1]; 100 μg/mouse i.p., vs positive control group
  inhibition of eosinophil recruitment into the airways (BAL fluid analysis): 74%
[1]
  airway hyperreactivity: significant decrease
[2]
  calcium flux: a strong calcium flux
  desensitization of transfectants to subsequent RANTES treatment: could desensitize
